# From PMC3692398 (Biochemical pharmacology, 2013)
# Where two headings read alike, the source gives them in different places.
# Columns and labels:
# hVMAT2 [1] = molecular target: T1, hVMAT2 (Homo sapiens, UniProt Q05940); assay: Inhibition of [3H]DHTB binding, HEK-hVMAT2 membranes; settings: read-out: Inhibition of [3H]DHTB binding Ki ± sem, hVMAT2
# hVMAT2 [2] = molecular target: T1, hVMAT2; assay: Inhibition of [3H]5-HT uptake, HEK-hVMAT2 membrane preparation; type: biochemical; settings: read-out: Inhibition of [3H]5-HT uptake IC50 ± sem, hVMAT2; 40 nM [3H]5-HT, 2 mM MgATP
# hSERT [3] = molecular target: T2, hSERT (Homo sapiens, UniProt P31645); assay: Superfusion release of preloaded [3H]5-HT from HEK-hSERT cells; type: cell-based; settings: for EC50: read-out: Drug-induced release of [3H]neurotransmitter EC50 ± sem, hSERT [3H]5-HT, superfusion, AUC
# hDAT [4] = molecular target: T3, hDAT (Homo sapiens, UniProt Q01959); assay: Superfusion release of preloaded [3H]DA from HEK-hDAT cells; type: cell-based; settings: for releasing efficacy, hDAT [3H]DA: concentrations ranging from 1 nM to 100 µM; for EC50: read-out: Drug-induced release of [3H]neurotransmitter EC50 ± sem, hDAT [3H]DA, superfusion, AUC
# hSERT [5] = molecular target: T2, hSERT; assay: Inhibition of [3H]5-HT uptake, intact HEK-hSERT cells; type: cell-based; settings: for ratio of binding Ki to uptake IC50, hSERT: [125I]RTI-55 Ki / [3H]5-HT uptake IC50; for IC50: read-out: Inhibition of [3H]neurotransmitter uptake IC50 ± sem, hSERT [3H]5-HT, 20 nM [3H]5-HT, intact cells
# h5-HT1A receptor [6] = molecular target: T4, h5-HT1A receptor (Homo sapiens, UniProt P08908); assay: Stimulation of [35S]GTPγS binding, HEK-h5-HT1A membranes; type: biochemical; settings: for h5-HT1A Stimulation of [35S]GTPγS binding % maximum stimulation ± sem: normalized to the maximal stimulation by 5-HT; for EC50: read-out: h5-HT1A Stimulation of [35S]GTPγS binding EC50 ± sem
# T4 sequence (P08908 1-422): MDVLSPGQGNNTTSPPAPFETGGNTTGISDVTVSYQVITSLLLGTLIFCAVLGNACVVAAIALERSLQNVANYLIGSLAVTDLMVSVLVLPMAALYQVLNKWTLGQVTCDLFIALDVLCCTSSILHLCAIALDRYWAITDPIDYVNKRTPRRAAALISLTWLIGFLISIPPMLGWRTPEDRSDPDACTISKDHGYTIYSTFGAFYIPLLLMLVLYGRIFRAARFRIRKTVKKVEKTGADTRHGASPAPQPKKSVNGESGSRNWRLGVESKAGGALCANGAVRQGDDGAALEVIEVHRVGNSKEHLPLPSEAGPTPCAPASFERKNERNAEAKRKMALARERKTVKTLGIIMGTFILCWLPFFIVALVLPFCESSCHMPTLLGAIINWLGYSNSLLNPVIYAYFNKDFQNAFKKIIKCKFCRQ
# h5-HT2A receptor [7] = molecular target: T5, h5-HT2A receptor (Homo sapiens, UniProt P28223); assay: [125I]DOI binding, HEK-h5-HT2A; settings: read-out: Inhibition of radioligand binding Ki ± sem, h5-HT2A [125I]DOI
# h5-HT2C receptor [8] = molecular target: T6, h5-HT2C receptor (Homo sapiens, UniProt P28335); assay: biochemical; type: binding
# T6 sequence (P28335 33-458): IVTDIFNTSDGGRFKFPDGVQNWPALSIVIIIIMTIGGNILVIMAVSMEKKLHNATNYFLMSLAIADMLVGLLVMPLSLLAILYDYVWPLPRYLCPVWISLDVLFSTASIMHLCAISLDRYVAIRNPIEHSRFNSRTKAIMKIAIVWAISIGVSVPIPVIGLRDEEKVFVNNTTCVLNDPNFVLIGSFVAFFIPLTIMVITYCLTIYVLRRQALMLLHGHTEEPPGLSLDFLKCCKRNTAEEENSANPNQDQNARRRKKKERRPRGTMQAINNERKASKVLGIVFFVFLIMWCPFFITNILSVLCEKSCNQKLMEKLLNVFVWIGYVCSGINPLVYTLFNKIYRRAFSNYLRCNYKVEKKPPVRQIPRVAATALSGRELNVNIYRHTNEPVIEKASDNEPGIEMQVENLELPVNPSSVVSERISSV
# hNET [9] = molecular target: T7, hNET (Homo sapiens, UniProt P23975); assay: cell-based; type: cell-based; settings: for IC50: read-out: Inhibition of [3H]neurotransmitter uptake IC50 ± sem, hNET [3H]NE
# hDAT [10] = molecular target: T3, hDAT; assay: Inhibition of [125I]RTI-55 binding, HEK-hDAT membranes; settings: read-out: Inhibition of [125I]RTI-55 binding Ki ± sem, hDAT; HEK-hDAT membranes
# h5-HT2C receptor [11] = molecular target: T6, h5-HT2C receptor; assay: Inhibition of 5-HT-stimulated IP-1 formation; type: cell-based; settings: for h5-HT2C Inhibition of 5-HT-stimulated IP-1 formation % maximum inhibition ± sem: 100 nM 5-HT, normalized to maximal inhibition by SB242084 (1 µM)
# hNET [12] = molecular target: T7, hNET; assay: Superfusion release of preloaded [3H]NE from HEK-hNET cells; type: cell-based; settings: for releasing efficacy, hNET [3H]NE: concentrations ranging from 10 nM to 100 µM; for EC50: read-out: Drug-induced release of [3H]neurotransmitter EC50 ± sem, hNET [3H]NE, superfusion, AUC; for % maximum release ± sem, hNET [3H]NE: relative to maximal AUC induced by METH (0.3 or 1 µM)
# hDAT [13] = molecular target: T3, hDAT; assay: Inhibition of [3H]DA uptake, intact HEK-hDAT cells; type: cell-based; settings: for ratio of binding Ki to uptake IC50, hDAT: [125I]RTI-55 Ki / [3H]DA uptake IC50; for IC50: read-out: Inhibition of [3H]neurotransmitter uptake IC50 ± sem, hDAT [3H]DA, 20 nM [3H]DA, intact cells
# h5-HT2A receptor [14] = molecular target: T5, h5-HT2A receptor; assay: Inhibition of 5-HT-stimulated IP-1 formation; type: cell-based; settings: 100 nM 5-HT; for h5-HT2A Inhibition of 5-HT-stimulated IP-1 formation % maximum inhibition ± sem: normalized to maximal inhibition by ketanserin (10 µM); for IC50: read-out: h5-HT2A Inhibition of 5-HT-stimulated IP-1 formation IC50 ± sem
# hSigma1 receptor = hSigma1 receptor (Homo sapiens, UniProt Q99720); assay: [3H]; type: binding
# hVMAT2 [15] = molecular target: T1, hVMAT2; assay: Superfusion release of preloaded [3H]NE from HEK-hVMAT2 cells; type: cell-based; settings: for EC50: read-out: Drug-induced release of [3H]NE EC50 ± sem, hVMAT2, superfusion
# hNET [16] = molecular target: T7, hNET; assay: biochemical; type: binding; settings: read-out: Inhibition of [125I]RTI-55 binding Ki ± sem, hNET
# h5-HT1A receptor [17] = molecular target: T4, h5-HT1A receptor; assay: [3H]8-OH-DPAT binding, HEK-h5-HT1A; settings: read-out: Inhibition of radioligand binding Ki ± sem, h5-HT1A [3H]8OH-DPAT
# [18] = read-out: Inhibition of radioligand binding Ki ± sem, h5-HT2C [125I]DOI
# [19] = read-out: Inhibition of [3H]pentazocine binding Ki ± sem, hSigma1
# T3 sequence (Q01959 whole entry, the tested form may be a part): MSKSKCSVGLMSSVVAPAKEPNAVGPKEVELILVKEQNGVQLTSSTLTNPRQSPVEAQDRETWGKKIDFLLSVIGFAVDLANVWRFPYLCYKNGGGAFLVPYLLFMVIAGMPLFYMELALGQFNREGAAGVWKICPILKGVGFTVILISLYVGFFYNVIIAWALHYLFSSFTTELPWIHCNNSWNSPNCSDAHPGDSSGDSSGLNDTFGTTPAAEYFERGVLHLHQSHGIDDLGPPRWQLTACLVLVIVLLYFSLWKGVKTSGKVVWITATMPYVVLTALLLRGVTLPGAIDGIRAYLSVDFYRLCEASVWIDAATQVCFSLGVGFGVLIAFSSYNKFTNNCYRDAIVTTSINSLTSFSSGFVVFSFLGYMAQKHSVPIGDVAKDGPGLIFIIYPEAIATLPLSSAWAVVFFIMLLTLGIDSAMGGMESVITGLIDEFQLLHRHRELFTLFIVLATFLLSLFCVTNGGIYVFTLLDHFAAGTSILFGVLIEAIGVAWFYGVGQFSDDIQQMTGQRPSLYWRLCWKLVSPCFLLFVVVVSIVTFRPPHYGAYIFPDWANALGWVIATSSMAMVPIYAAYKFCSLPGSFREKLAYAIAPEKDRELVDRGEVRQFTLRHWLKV
# hSigma1 receptor, sequence (Q99720 whole entry, the tested form may be a part): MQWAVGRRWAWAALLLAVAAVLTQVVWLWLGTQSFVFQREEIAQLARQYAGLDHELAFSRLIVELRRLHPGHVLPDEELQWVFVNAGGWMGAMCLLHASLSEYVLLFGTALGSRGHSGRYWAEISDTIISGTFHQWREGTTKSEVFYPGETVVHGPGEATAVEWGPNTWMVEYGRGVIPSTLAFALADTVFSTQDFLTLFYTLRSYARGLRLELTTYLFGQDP
# T7 sequence (P23975 whole entry): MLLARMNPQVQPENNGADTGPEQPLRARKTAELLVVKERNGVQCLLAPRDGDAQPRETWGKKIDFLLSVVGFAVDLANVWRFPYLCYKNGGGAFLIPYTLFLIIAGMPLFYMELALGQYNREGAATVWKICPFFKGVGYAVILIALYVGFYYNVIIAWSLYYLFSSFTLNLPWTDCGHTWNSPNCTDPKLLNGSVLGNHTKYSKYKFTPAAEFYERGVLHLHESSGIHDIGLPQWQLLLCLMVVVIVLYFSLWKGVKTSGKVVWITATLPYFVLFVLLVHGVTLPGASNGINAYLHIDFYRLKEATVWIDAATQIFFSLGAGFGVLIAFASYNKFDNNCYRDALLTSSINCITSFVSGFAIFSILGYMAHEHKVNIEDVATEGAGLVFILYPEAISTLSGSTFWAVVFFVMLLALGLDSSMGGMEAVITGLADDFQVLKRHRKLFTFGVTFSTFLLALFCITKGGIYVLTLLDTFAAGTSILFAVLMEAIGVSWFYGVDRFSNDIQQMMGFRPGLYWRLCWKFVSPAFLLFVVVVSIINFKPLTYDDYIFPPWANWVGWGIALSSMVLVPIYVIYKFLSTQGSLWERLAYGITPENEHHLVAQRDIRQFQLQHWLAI
# T1 sequence (Q05940 whole entry): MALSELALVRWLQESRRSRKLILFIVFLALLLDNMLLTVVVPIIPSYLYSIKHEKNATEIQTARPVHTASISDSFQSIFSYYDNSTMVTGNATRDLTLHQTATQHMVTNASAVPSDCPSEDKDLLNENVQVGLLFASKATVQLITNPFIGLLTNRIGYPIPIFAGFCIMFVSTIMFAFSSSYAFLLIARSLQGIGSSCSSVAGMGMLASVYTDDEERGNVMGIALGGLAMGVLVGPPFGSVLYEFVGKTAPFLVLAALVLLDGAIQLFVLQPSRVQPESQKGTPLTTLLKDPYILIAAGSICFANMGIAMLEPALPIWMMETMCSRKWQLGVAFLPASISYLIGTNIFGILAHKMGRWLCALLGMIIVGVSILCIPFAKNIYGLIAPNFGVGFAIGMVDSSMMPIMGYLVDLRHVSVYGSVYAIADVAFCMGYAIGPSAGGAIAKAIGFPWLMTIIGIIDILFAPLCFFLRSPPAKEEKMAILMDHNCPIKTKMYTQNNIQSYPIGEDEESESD
# T2 sequence (P31645 whole entry, the tested form may be a part): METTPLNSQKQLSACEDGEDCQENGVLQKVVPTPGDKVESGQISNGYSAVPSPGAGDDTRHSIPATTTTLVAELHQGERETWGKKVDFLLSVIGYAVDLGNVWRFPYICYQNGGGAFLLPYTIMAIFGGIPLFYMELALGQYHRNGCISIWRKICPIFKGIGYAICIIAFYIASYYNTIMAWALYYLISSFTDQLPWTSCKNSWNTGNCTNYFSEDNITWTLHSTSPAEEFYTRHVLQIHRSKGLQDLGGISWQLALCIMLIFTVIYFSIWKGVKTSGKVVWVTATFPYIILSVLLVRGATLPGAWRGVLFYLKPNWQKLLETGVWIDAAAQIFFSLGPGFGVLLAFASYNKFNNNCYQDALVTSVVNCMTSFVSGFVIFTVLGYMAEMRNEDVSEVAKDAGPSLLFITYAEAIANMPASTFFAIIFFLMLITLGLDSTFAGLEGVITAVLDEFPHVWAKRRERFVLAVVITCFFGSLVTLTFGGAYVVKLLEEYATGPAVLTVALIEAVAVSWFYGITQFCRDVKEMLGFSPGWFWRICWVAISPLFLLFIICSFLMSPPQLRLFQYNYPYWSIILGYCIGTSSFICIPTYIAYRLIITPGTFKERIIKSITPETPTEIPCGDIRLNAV
# T5 sequence (P28223 whole entry): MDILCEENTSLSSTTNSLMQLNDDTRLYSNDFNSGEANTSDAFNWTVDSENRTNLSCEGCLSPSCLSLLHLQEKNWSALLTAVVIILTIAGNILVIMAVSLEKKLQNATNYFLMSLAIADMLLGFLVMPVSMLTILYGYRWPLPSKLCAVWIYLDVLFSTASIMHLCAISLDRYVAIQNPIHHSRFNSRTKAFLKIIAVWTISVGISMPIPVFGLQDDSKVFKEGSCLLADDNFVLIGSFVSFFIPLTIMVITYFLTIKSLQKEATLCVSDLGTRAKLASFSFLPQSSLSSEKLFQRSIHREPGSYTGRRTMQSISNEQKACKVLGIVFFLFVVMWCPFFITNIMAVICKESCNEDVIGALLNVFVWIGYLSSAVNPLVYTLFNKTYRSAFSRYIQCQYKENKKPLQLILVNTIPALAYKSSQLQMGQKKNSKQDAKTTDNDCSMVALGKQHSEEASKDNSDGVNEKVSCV
compound,measurement,setting,value
"CCC1(O)CC2c3cc(OC)c(OC)cc3CCN2CC1CC(C)C [RO4-1284, (2R,2S,11bs)-2-ethyl-3-isobutyl-9,10-dimethoxy-2,2,4,6,7,11b-hexahydro-1H-pyrido[2,1-a]isoquinolin-2-ol, reference compound]",Ki,hVMAT2 [1],0.15 ± 0.015 µM
same,IC50,hVMAT2 [2],0.098 ± 0.032 µM
"CC(N)Cc1ccc(Cl)cc1 (stereo not drawn) [PCA, p-chloroamphetamine, reference compound]","% maximum release ± sem, hSERT [3H]5-HT",hSERT [3],106.4 ± 2.0%
same,EC50,hSERT [3],0.8 ± 0.27 µM
"CCCC(C(=O)c1ccc2ccccc2c1)N1CCCC1 (stereo not drawn) [Naphyrone, naphthylpyrovalerone]","releasing efficacy, hDAT [3H]DA",hDAT [4],minimal releasing efficacy
same,EC50,hDAT [4],> 100 µM
same,"% maximum release ± sem, hDAT [3H]DA",hDAT [4]; relative to maximal AUC induced by METH (1 or 10 µM),< 6%
same,"ratio of binding Ki to uptake IC50, hSERT",hSERT [5],less than six
same,IC50,hSERT [5],0.0593 ± 0.0097 µM
same,h5-HT1A Stimulation of [35S]GTPγS binding % maximum stimulation ± sem,h5-HT1A receptor [6],80 ± 15%
same,EC50,h5-HT1A receptor [6],116 ± 30 µM
same,Ki,h5-HT2A receptor [7],17.7 ± 2.6 µM
same,Ki,h5-HT2C receptor [8]; [18],23.2 µM
same,Ki,hVMAT2 [1],119 ± 20 µM
same,"ratio of binding Ki to uptake IC50, hNET",hNET [9],less than six
same,IC50,hNET [9],0.035 µM
same,IC50,hVMAT2 [2],21.4 ± 7.1 µM
same,"% maximum release ± sem, hSERT [3H]5-HT",hSERT [3],20.1 ± 9.3%
same,"releasing efficacy, hSERT [3H]5-HT",hSERT [3]; concentrations ranging from 1 nM to 100 µM,minimal releasing efficacy
same,EC50,hSERT [3],7.5 ± 3 µM
same,Ki,hDAT [10],0.0108 ± 0.00076 µM
same,h5-HT2C Inhibition of 5-HT-stimulated IP-1 formation % maximum inhibition ± sem,h5-HT2C receptor [11],32 ± 14%
same,"releasing efficacy, hNET [3H]NE",hNET [12],minimal releasing efficacy
same,EC50,hNET [12],> 100 µM
same,"% maximum release ± sem, hNET [3H]NE",hNET [12],36 ± 18%
same,"ratio of binding Ki to uptake IC50, hDAT",hDAT [13],less than six
same,fold less potent at other target proteins than at biogenic amine transporters,hDAT [13]; other target proteins vs biogenic amine transporters,60–350 fold
same,IC50,hDAT [13],0.0126 ± 0.0031 µM
same,h5-HT2A Inhibition of 5-HT-stimulated IP-1 formation % maximum inhibition ± sem,h5-HT2A receptor [14],98.18 ± 0.94%
same,IC50,h5-HT2A receptor [14],65 ± 11 µM
same,Ki,hSigma1 receptor; [19],0.509 ± 0.052 µM
same,EC50,hVMAT2 [15],> 100 µM
same,"Release of [3H]NE % maximum release ± sem or range, hVMAT2",hVMAT2 [15]; relative to maximal AUC induced by METH (100 µM or 1 mM),34 ± 14%
same,"Release of [3H]NE % maximum release ± sem or range, hVMAT2","hVMAT2 [15]; relative to maximal AUC induced by METH (100 µM or 1 mM), listed as naphyrone",less than 35%
same,Ki,hNET [16],0.059 µM
same,Ki,h5-HT1A receptor [17],4.64 ± 0.6 µM
"O=C(CCCN1CCC2(CC1)C(=O)NCN2c1ccccc1)c1ccc(F)cc1 [Spiperone, reference compound]",Ki,"hSigma1 receptor; Inhibition of [3H]pentazocine binding Ki ± sem, hSigma1",1.31 ± 0.24 µM
CCC(NC)C(=O)c1ccc2c(c1)OCO2 (stereo not drawn) [Butylone],"% maximum release ± sem, hDAT [3H]DA",hDAT [4],5.4 ± 3.8%
same,"releasing efficacy, hDAT [3H]DA",hDAT [4],minimal releasing efficacy
same,EC50,hDAT [4],> 10 µM
same,"ratio of binding Ki to uptake IC50, hSERT",hSERT [5],5.3
same,IC50,hSERT [5],1.97 ± 0.43 µM
same,h5-HT1A Stimulation of [35S]GTPγS binding % maximum stimulation ± sem,h5-HT1A receptor [6],52 ± 13%
same,EC50,h5-HT1A receptor [6],440 ± 110 µM
same,Ki,h5-HT2A receptor [7],118 ± 17 µM
same,Ki,h5-HT2C receptor [8]; [18],41 ± 12 µM
same,Ki,hVMAT2 [1],730 ± 110 µM
same,"ratio of binding Ki to uptake IC50, hNET",hNET [9]; [125I]RTI-55 Ki / [3H]NE uptake IC50,7.5
same,IC50,"hNET [9]; 20 nM [3H]NE, intact cells",1.06 ± 0.24 µM
same,IC50,hVMAT2 [2],162 ± 55 µM
same,"% maximum release ± sem, hSERT [3H]5-HT",hSERT [3],30.1 ± 6.5%
same,EC50,hSERT [3],3.1 ± 1.4 µM
same,Ki,hDAT [10],1.73 ± 0.27 µM
same,h5-HT2C Inhibition of 5-HT-stimulated IP-1 formation % maximum inhibition ± sem,h5-HT2C receptor [11],11 ± 12%
same,"releasing efficacy, hNET [3H]NE",hNET [12],minimal releasing efficacy
same,EC50,hNET [12],> 100 µM
same,"% maximum release ± sem, hNET [3H]NE",hNET [12],3.6 ± 2.2%
same,"ratio of binding Ki to uptake IC50, hDAT",hDAT [13],8.2
same,IC50,hDAT [13],0.211 ± 0.054 µM
same,h5-HT2A Inhibition of 5-HT-stimulated IP-1 formation % maximum inhibition ± sem,h5-HT2A receptor [14],95.9 ± 4.1%
same,IC50,h5-HT2A receptor [14],410 ± 110 µM
same,Ki,hSigma1 receptor; [19],7.9 ± 1.8 µM
same,"Release of [3H]NE % maximum release ± sem or range, hVMAT2",hVMAT2 [15],17.4 ± 1.1%
same,EC50,hVMAT2 [15],4.4 ± 0.52 µM
same,Ki,hNET [16]; HEK-hNET membranes,7.98 ± 0.55 µM
same,Ki,h5-HT1A receptor [17],> 96 µM
"Cc1cc2c(cc1Cl)N(C(=O)Nc1ccc(Oc3cccnc3C)nc1)CC2 [SB242084, reference compound]",Ki,h5-HT2C receptor [8],0.00247 µM
same,IC50,h5-HT2C receptor [11],0.00028 ± 0.00012 µM
"COc1cc(CC(C)N)c(OC)cc1I (racemic) [[^125I]DOI, (±)-1-(2,5,-dimethoxy-4-iodophenyl)-2-aminopropane, reference compound]",Kd,"h5-HT2C receptor [8]; read-out: Kd of radioligand, HEK-H5HT2C",0.00418 ± 0.00046 µM
